Source: patent US20230026696A1, “TRPV4 RECEPTOR LIGANDS” (UNIVERSITY OF UTAH RESEARCH FOUNDATION, priority 2019, published 2023)
Where a name gives a salt, the structure may show the parent alone.

Biological target: T1, human TRPV4 (Homo sapiens, UniProt Q9HBA0)
T1 construct: expressed in transfected cells
Test: Fluorometric cell-based Ca2+ flux assay, HEK-293 cells stably overexpressing human TRPV4
Details: HEK-293 stably overexpressing human TRPV4; agonist GSK1016790A 30 nM
Experimental: Fluorometric cell-based Ca^2+ flux assays were performed to assess TRPV4 antagonist activity and determine potency (IC50 values) in human embryonic kidney-293 cells (HEK-293) that stably overexpress human TRPV4. The assays were performed according to methods described in: Deering-Rice, C. E., Johansen, M. E., Roberts, J. K., Thomas, K. C., Romero, E. G., Lee, J., Yost, G. S., Veranth, J. M., and Reilly, C. A. (2012), Mol. Pharmacol. 81(3), 411-419; Shapiro, D., Deering-Rice, C. E., Romero, E. G., Hughen, R. W., Light, A. R., Veranth, J. M., and Reilly, C. A. (2013), Chem Res. Toxicol., 26, 750-758; and Deering-Rice, C. E., Mitchell, V. K., Romero, E. G., Abdel Aziz, M. H., and Reilly, C. A. (2014), Pharmacol. Res. & Perspectives. 2(5), 1-10.
The HEK-293 cells stably overexpressing human TRPV4 were grown to confluence in 2% (w/v) gelatin-coated 96-well plates in DMEM:F12 media supplemented with 5% fetal bovine serum, 1× penicillin/streptomycin (Invitrogen) and Geneticin (300 μg/mL).
The HEK-293 cells were prepared for assay by replacing the growth media with a 1:1 solution of LHC-9 and Fluo 4-Direct (Invitrogen) reagent containing Fluo 4-AM, pluronic F-127, probenecid, and a proprietary quencher dye. The cells were then incubated at 37° C. for 1 h in a cell culture incubator. The cells were subsequently washed by replacing the loading solution with LHC-9 containing 1 mM water-soluble probenecid (Invitrogen), 750 μM Trypan Red (ATT Bioquest), and a test compound (at various concentrations). The cells were incubated for an additional 30 minutes at 37° C. to allow for Fluo 4-AM cleavage and activation, as well as equilibration to both the test compounds and Fluo 4.
An agonist treatment solution (90 nM GSK1016790A, a potent activator of TRPV4) was prepared in LHC9 at 3× concentration and 25 μL was added to 50 μL of media on the cells in 96 well plates, providing a final concentration of 30 nM. Changes in cellular fluorescence were monitored with a BMG Labtech NOVOStar fluorescence plate reader for 1 minute at 37° C. Data were quantified as the maximum rate of change in fluorescence intensity (max ΔF/s), corrected for media only treatment (negative control), and represented as the percentage of response relative to the no antagonist control. A minimum of three replicates were used for each treatment condition, with a minimum of 8 concentrations to derive the IC50 values reported for each antagonist. The IC50 values for each antagonist, which are shown in Table 4 below, were calculated according to methods described in the assays were performed according to methods described in: Deering-Rice, C. E., Johansen, M. E., Roberts, J. K., Thomas, K. C., Romero, E. G., Lee, J., Yost, G. S., Veranth, J. M., and Reilly, C. A. (2012), Mol. Pharmacol. 81(3), 411-419; Shapiro, D., Deering-Rice, C. E., Romero, E. G., Hughen, R. W., Light, A. R., Veranth, J. M., and Reilly, C. A. (2013), Chem Res. Toxicol., 26, 750-758; and Deering-Rice, C. E., Mitchell, V. K., Romero, E. G., Abdel Aziz, M. H., and Reilly, C. A. (2014), Pharmacol. Res. & Perspectives. 2(5), 1-10.

T1 sequence (Q9HBA0 whole entry): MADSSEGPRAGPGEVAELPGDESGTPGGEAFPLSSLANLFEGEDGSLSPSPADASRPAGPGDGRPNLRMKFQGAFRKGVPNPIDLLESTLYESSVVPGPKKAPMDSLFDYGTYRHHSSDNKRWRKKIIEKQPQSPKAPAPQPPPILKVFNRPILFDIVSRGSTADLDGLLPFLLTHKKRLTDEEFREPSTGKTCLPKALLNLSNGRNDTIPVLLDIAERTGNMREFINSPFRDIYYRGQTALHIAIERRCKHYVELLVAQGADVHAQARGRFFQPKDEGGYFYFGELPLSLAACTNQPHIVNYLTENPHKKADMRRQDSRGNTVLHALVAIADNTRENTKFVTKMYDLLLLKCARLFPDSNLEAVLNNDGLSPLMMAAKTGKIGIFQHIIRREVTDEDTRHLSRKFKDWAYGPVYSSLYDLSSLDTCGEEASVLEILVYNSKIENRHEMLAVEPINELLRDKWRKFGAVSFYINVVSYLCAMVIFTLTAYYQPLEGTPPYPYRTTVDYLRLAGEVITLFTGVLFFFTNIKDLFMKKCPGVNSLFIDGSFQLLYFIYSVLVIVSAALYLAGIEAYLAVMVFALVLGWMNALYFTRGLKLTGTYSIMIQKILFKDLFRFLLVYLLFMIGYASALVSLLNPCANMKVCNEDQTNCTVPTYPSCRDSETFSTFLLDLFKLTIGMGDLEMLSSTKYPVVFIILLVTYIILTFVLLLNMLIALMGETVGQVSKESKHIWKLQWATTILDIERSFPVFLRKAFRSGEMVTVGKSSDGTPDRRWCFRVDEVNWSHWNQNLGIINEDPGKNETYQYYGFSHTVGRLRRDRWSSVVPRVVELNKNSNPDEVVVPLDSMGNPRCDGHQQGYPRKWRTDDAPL

| Structure (SMILES) | IC50 [nM] |
| --- | --- |
| Cc1ccc(S(=O)(=O)N2CC(CO)(COc3ccc(C#N)c(F)c3)C2)c(C#N)c1 [Compound 103, 4-((1-((2-Cyano-4-methylphenyl)sulfonyl)-3-(hydroxymethyl)azetidin-3-yl)methoxy)-2-fluorobenzonitrile] | 14.7 |
| N#Cc1ccc(OCC2(CNC3COC3)CN(S(=O)(=O)c3ccc(Cl)cc3Cl)C2)cc1F [Compound 26, 4-((1-((2,4-Dichlorophenyl)sulfonyl)-3-((oxetan-3-ylamino)methyl)azetidin-3-yl)methoxy)-2-fluorobenzonitrile] | 8 |
| COc1cc(C#N)c(F)cc1OCC1(CO)CN(S(=O)(=O)c2ccccc2C#N)C1 [Compound 109, 4-((1-((2-Cyanophenyl)sulfonyl)-3-(hydroxymethyl)azetidin-3-yl)methoxy)-2-fluoro-5-methoxybenzonitrile] | 940 |
| Cc1ccc(S(=O)(=O)N2CC(CO)(COc3ccc(C#N)c(F)c3)C2)cc1 [Compound 73, 2-Fluoro-4-((3-(hydroxymethyl)-1-tosylazetidin-3-yl)methoxy)benzonitrile] | 3000 |
| N#Cc1ccc(OCC2(CO)CN(S(=O)(=O)c3ccc(F)c(Cl)c3)C2)cc1F [Compound 67, 4-((1-((3-chloro-4-fluorophenyl)sulfonyl)-3-(hydroxymethyl)azetidin-3-yl)methoxy)-2-fluorobenzonitrile] | 5000 |
| N#Cc1ccc(OCC2(CNS(=O)(=O)CCN)CN(S(=O)(=O)c3ccc(Cl)cc3Cl)C2)cc1F [Compound 49, 2-Amino-N-((3-((4-cyano-3-fluorophenoxy)methyl)-1-((2,4-dichlorophenyl)sulfonyl)azetidin-3-yl)methyl)ethane-1-sulfonamide] | 110 |
| N#Cc1ccc(OCC2(CNCC(N)=O)CN(S(=O)(=O)c3ccc(Cl)cc3Cl)C2)cc1F [Compound 20, 2-(((3-((4-Cyano-3-fluorophenoxy)methyl)-1-((2,4-dichlorophenyl)sulfonyl)azetidin-3-yl)methyl)amino)acetamide hydrochloride] | 153 |
| N#Cc1ccc(OCC2(CNCC(O)CO)CN(S(=O)(=O)c3ccccc3C#N)C2)cc1F (stereo not drawn) [Compound 115, 4-((1-((2-Cyanophenyl)sulfonyl)-3-(((2,3-dihydroxypropyl)amino)methyl)azetidin-3-yl)methoxy)-2-fluorobenzonitrile] | 1.98 |
| CCOC(=O)CCNCC1(COc2ccc(C#N)c(F)c2)CN(S(=O)(=O)c2ccc(Cl)cc2Cl)C1 [Compound 37, Ethyl 3-(((3-((4-Cyano-3-fluorophenoxy)methyl)-1-((2,4-dichlorophenyl)sulfonyl)azetidin-3-yl)methyl)amino)propanoate hydrochloride] | 3.3 |
| N#Cc1ccc(NCC2(CO)CN(S(=O)(=O)c3ccc(Cl)cc3Cl)C2)cc1F [Compound 101, 4-(((1-((2,4-dichlorophenyl)sulfonyl)-3-(hydroxymethyl)azetidin-3-yl)methyl)amino)-2-fluorobenzonitrile] | 136 |
| N#Cc1ccc(OCC2(CNCc3nccs3)CN(S(=O)(=O)c3ccc(Cl)cc3Cl)C2)cc1F [Compound 22, 4-((1-((2,4-dichlorophenyl)sulfonyl)-3-(((thiazol-2-ylmethyl)amino)methyl)azetidin-3-yl)methoxy)-2-fluorobenzonitrile hydrochloride] | 117 |
| N#Cc1ccc(OCC2(CNCCCO)CN(S(=O)(=O)c3ccc(Cl)cc3Cl)C2)cc1F [Compound 19, 4-((1-((2,4-Dichlorophenyl)sulfonyl)-3-(((3-hydroxypropyl)amino)methyl)azetidin-3-yl)methoxy)-2-fluorobenzonitrile hydrochloride] | 0.5 |
| CC1(COc2ccc(C#N)cc2)CN(S(=O)(=O)c2ccc(Cl)cc2Cl)C1 [Compound 1, 4-((1-((2,4-Dichlorophenyl)sulfonyl)-3-methylazetidin-3-yl)methoxy)benzonitrile] | 510 |
| Cc1ccccc1S(=O)(=O)N1CC(CO)(COc2ccc(C#N)c(F)c2)C1 [Compound 76, 2-Fluoro-4-((3-(hydroxymethyl)-1-(o-tolylsulfonyl)azetidin-3-yl)methoxy)benzonitrile] | > 2500 |
| N#Cc1ccc(OCC2(COP(=O)(O)O)CN(S(=O)(=O)c3ccc(Cl)cc3Cl)C2)cc1F [Compound 14, Sodium (3-((4-cyano-3-fluorophenoxy)methyl)-1-((2,4-dichlorophenyl)sulfonyl)azetidin-3-yl)methyl phosphate] | 70 |
| N#Cc1ccc(OCC2(CNCC(O)CO)CN(S(=O)(=O)c3ccc(Cl)cc3Cl)C2)cc1F (stereo not drawn) [Compound 33, 4-((1-((2,4-Dichlorophenyl)sulfonyl)-3-(((2,3-dihydroxypropyl)amino)methyl)azetidin-3-yl)methoxy)-2-fluorobenzonitrile hydrochloride] | 0.3 |
| CCOC(=O)C1(COc2ccc(C#N)c(F)c2)CN(S(=O)(=O)c2ccc(Cl)cc2Cl)C1 [Compound 7, Ethyl 3-((4-cyano-3-fluorophenoxy)methyl)-1-((2,4-dichlorophenyl)sulfonyl)azetidine-3-carboxylate] | 5000 |

More lines, now with the values ahead:

| IC50 [nM] | Structure (SMILES) |
| --- | --- |
| ~5000 | COC(=O)c1ccc(OCC2(CO)CN(S(=O)(=O)c3ccc(Cl)cc3Cl)C2)cc1 [Compound 90, Methyl 4-((1-((2,4-dichlorophenyl)sulfonyl)-3-(hydroxymethyl)azetidin-3-yl)methoxy)benzoate] |
| 8.7 | N#Cc1ccc(OCC2(CN)CN(S(=O)(=O)c3ccc(Cl)cc3Cl)C2)cc1F [Compound 44, 4-((3-(Aminomethyl)-1-((2,4-dichlorophenyl)sulfonyl)azetidin-3-yl)methoxy)-2-fluorobenzonitrile] |
| ~5000 | Cc1ccc(OCC2(CO)CN(S(=O)(=O)c3ccc(Cl)cc3Cl)C2)cc1 [Compound 92, (1-((2,4-Dichlorophenyl)sulfonyl)-3-((p-tolyloxy)methyl)azetidin-3-yl)methanol] |
| > 64 | COc1ccc(S(=O)(=O)N2CC(CO)(COc3ccc(C#N)c(F)c3)C2)c(Cl)c1 [Compound 83, 4-((1-((2-chloro-4-methoxyphenyl)sulfonyl)-3-(hydroxymethyl)azetidin-3-yl)methoxy)-2-fluorobenzonitrile] |
| ~3000 | Cc1cc(OCC2(CO)CN(S(=O)(=O)c3ccc(Cl)cc3Cl)C2)ccn1 [Compound 95, (1-((2,4-Dichlorophenyl)sulfonyl)-3-(((2-methylpyridin-4-yl)oxy)methyl)azetidin-3-yl)methanol] |
| > 1000 | CCOc1cc(OCC2(CO)CN(S(=O)(=O)c3ccc(Cl)cc3Cl)C2)ccc1C#N [Compound 100, 4-((1-((2,4-Dichlorophenyl)sulfonyl)-3-(hydroxymethyl)azetidin-3-yl)methoxy)-2-ethoxybenzonitrile] |
| 0.3 | CC(CO)NCC1(COc2ccc(C#N)c(F)c2)CN(S(=O)(=O)c2ccc(Cl)cc2Cl)C1 (stereo not drawn) [Compound 32, 4-((1-((2,4-Dichlorophenyl)sulfonyl)-3-(((1-hydroxypropan-2-yl)amino)methyl)azetidin-3-yl)methoxy)-2-fluorobenzonitrile hydrochloride] |
| 413 | N#Cc1ccc(OCC2(CO)CN(S(=O)(=O)c3ccccc3Cl)C2)cc1F [Compound 58, 4-((1-((2-Chlorophenyl)sulfonyl)-3-(hydroxymethyl)azetidin-3-yl)methoxy)-2-fluorobenzonitrile] |
| 10000 | NCc1ccc(OCC2(CO)CN(S(=O)(=O)c3ccc(Cl)cc3Cl)C2)cc1F [Compound 10, (3-((4-(Aminomethyl)-3-fluorophenoxy)methyl)-1-((2,4-dichlorophenyl)sulfonyl)azetidin-3-yl)methanol] |
| 0.3 | C[C@@H](O)CNCC1(COc2ccc(C#N)c(F)c2)CN(S(=O)(=O)c2ccc(Cl)cc2Cl)C1 [Compound 30, (R)-4-((1-((2,4-Dichlorophenyl)sulfonyl)-3-(((2-hydroxypropyl)amino)methyl)azetidin-3-yl)methoxy)-2-fluorobenzonitrile hydrochloride] |
